# Test results reported in patent publication EP4810052A2, “HCRHR2 SELECTIVE POLYPEPTIDES” (Gubra A/S, priority 2023, dated 2026).
# Starred links: 1 amine or outer side, 2 acyl side, 3 side chain; linkers in the order of their positions; H or OH if unused. Residues, ends and D or L forms follow the SMILES beside them. Groups on a side chain read outwards from the residue. *: point of attachment. C20 diacid = O=C(O)CCCCCCCCCCCCCCCCCCC(=O)*; γGlu = O=C(O)[C@H](CCC(=O)[*:2])N[*:1]; AEEA = NCCOCCOCC(=O)O
# What was measured:
# [1] = Subchronic unilateral ischemia-reperfusion injury (uIRI) in mice; assay type: in vivo; details: for BW at termination / Kidney weight at termination: ± SEM
# Excerpt: Male C57BL/6jRj mice were obtained from JanVier (JanVier Labs, France) at 10 weeks of age. The animals were single-housed in Individually Ventilated Cages (IVC from Tecniplast, Typ I SL cage) with free access to water, food and encrichments. Animals were allowed to acclimatize for 7 days prior to study start. After acclimatization, animals were randomized into groups based on body weight; 1) Sham, 2) uIRI - Vehicle, 3) uIRI -SEQ ID NO: 3, 30 nmol/kg and 4) uIRI -SEQ ID NO: 3, 100 nmol/kg.
# On study day 0, unilateral ischemia-reperfusion injury (uIRI, 25 min of occlusion followed by reperfusion) was performed on study group 2 - 4 (followed by uninephrectomy (UNx) on study day 6. Animals were subcutaneously dosed once daily starting prior to IRI surgery and until study day 7, where animals were terminated. Here plasma was collected, and the remaining kidney weighed and sampled for histological analysis. Kidneys were stained, analyzed and quantified using the following markers: collagen type-1 (col1a1), F4/80 and KIM-1.
# [2] = Telemetry in conscious healthy pigs; assay type: in vivo; details: study A
# Method: PK/PD/safety properties of SEQ ID NO: 3 were evaluated in freely moving conscious healthy pigs by […].
# In study part A, the effects of an ascending dose regime of SEQ ID NO: 3, (0.03, 0.1, 0.3 and 1.0 mg/kg) was compared to placebo. Primary endpoints were blood pressure, heart rate and ECG measurements.
# In study part B, the effect of repeated dosing (once weekly, for 4 weeks) with a single dose of SEQ ID NO: 3 (0.3 mg/kg) was compared to placebo. Primary endpoints were blood pressure, heart rate and ECG measurements.
# [3] = 100 nmol/kg, compared to uIRI vehicle
smiles,measurement,setting,value
CC[C@H](C)[C@H](N)C(=O)N[C@H](C(=O)N[C@@H](CC(C)C)C(=O)N[C@@H](CO)C(=O)N[C@@H](CC(C)C)C(=O)N[C@@H](CC(=O)O)C(=O)N[C@H](C(=O)N1CCC[C@H]1C(=O)N[C@H](C(=O)NCC(=O)N[C@@H](CC(C)C)C(=O)N[C@@H](CC(C)C)C(=O)N[C@@H](CCC(N)=O)C(=O)N[C@H](C(=O)N[C@@H](CC(C)C)C(=O)N[C@@H](CC(C)C)C(=O)N[C@@H](CCC(=O)O)C(=O)N[C@@H](CCC(N)=O)C(=O)N[C@@H](C)C(=O)N[C@@H](CCCNC(=N)N)C(=O)N[C@@H](C)C(=O)N[C@@H](CCCNC(=N)N)C(=O)N[C@@H](C)C(=O)N[C@@H](C)C(=O)N[C@@H](CCCNC(=N)N)C(=O)N[C@@H](CCC(=O)O)C(=O)N[C@@H](CCC(N)=O)C(=O)N[C@@H](C)C(=O)N[C@@H](CCCCNC(=O)COCCOCCNC(=O)COCCOCCNC(=O)CC[C@H](NC(=O)CC[C@H](NC(=O)CCCCCCCCCCCCCCCCCCC(=O)O)C(=O)O)C(=O)O)C(=O)N[C@H](C(=O)N[C@@H](CC(N)=O)C(=O)N[C@@H](C)C(=O)N[C@@H](CCC(=O)O)C(=O)N[C@H](C(=O)N[C@@H](CC(C)C)C(=O)N[C@@H](C)C(=O)N[C@@H](CCC(=O)O)C(=O)N[C@H](C(N)=O)C(C)C)[C@@H](C)CC)[C@@H](C)O)[C@@H](C)CC)[C@@H](C)CC)C(C)C)C(C)C [SEQ ID NO: 3] (H-IVLSLDVPIGLLQILLEQARARAAREQAK([AEEA-AEEA-γGlu-γGlu-C20 diacid])TNAEILAEV-NH2),"Renal fibrosis, Col1a1",[1]; 30 nmol/kg,34.3 ± 2.3 fractional area %
same,"Renal inflammation, F4/80",[1]; 30 nmol/kg,7.3 ± 0.6 fractional area %
same,"Renal injury, KIM-1",[1]; 30 nmol/kg,7.48 ± 0.49 fractional area %
same,Serum creatinine,[1]; 30 nmol/kg,1.83 ± 0.004 mg/dL
same,Serum urea,[1]; 30 nmol/kg,463.0 ± 10.5 mg/dL
same,BW at termination,[1]; 30 nmol/kg,24.4 ± 0.5 g
same,Kidney weight at termination,[1]; 30 nmol/kg,0.16 ± 0.005 g
same,"Renal fibrosis, Col1a1",[1]; 100 nmol/kg,26.4 ± 1.4 fractional area %
same,"Renal inflammation, F4/80",[1]; 100 nmol/kg,2.5 ± 0.6 fractional area %
same,"Renal injury, KIM-1",[1]; 100 nmol/kg,6.00 ± 0.50 fractional area %
same,Serum creatinine,[1]; 100 nmol/kg,1.17 ± 0.13 mg/dL
same,Serum urea,[1]; 100 nmol/kg,433 ± 22.5 mg/dL
same,kidney fibrosis,[1]; [3],reduced
same,kidney inflammation,[1]; [3],reduced
same,serum levels of creatinine,[1]; [3],reduced
same,BW at termination,[1]; 100 nmol/kg,21.8 ± 0.4 g
same,Kidney weight at termination,[1]; 100 nmol/kg,0.16 ± 0.006 g
same,Heart rate,[2],remained unaffected
same,mean arterial blood pressure,[2],remained unaffected
same,relaxation of the left ventricle,[2],not affected
same,"systemic or cardiac hemodynamics (LV end diastolic pressure, time constant of relaxation, baroreceptor sensitivity, heart rate variability)",[2],No relevant findings
same,PR-Interval,[2]; ECG,slight decrease
same,QT-Interval,[2]; ECG,unaffected
same,inotropic effects (contractility),[2]; ascending s.c. doses 0.03-1.0 mg/kg,long-lasting positive ionotropic effects
